Measurements from ChEMBL document CHEMBL1649350, “Receptor-dependent (RD) 3D-QSAR approach of a series of benzylpiperidine inhibitors of human acetylcholinesterase (HuAChE)” (Eur J Med Chem, 2011).

Molecular target: Acetylcholinesterase (Homo sapiens, UniProt P22303)
Sequence (P22303 whole entry): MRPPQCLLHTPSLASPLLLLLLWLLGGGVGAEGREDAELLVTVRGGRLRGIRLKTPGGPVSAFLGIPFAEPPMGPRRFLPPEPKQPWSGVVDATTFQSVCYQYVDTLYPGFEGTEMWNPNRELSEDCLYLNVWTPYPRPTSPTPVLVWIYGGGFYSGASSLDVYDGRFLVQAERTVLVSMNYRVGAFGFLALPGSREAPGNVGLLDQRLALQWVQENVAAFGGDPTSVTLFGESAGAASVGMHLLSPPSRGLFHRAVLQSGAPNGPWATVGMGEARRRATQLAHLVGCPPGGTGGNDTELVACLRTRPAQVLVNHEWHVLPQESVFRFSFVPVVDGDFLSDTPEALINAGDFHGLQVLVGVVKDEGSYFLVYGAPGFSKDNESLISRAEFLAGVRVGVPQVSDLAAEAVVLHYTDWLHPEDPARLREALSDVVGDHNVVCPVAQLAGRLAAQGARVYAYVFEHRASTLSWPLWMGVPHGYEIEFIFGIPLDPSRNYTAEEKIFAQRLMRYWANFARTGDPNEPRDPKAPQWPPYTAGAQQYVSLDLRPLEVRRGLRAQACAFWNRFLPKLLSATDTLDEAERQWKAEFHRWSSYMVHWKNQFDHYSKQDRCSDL
Description: Inhibition of human acetylcholinesterase

| Compound | IC50 |
| --- | --- |
| O=C(CCC1CCN(Cc2ccccc2)CC1)c1ccc2c(c1)CCNCC2 | 0.0251 µM |
| O=C(CCC1CCN(Cc2ccccc2)CC1)c1cc2c3c(c1)CCN3C(=O)CCC2 | 0.0525 µM |
| O=C(CCC1CCN(Cc2ccccc2Cl)CC1)c1cc2c3c(ccn3C(=O)CC2)c1 | 0.00513 µM |
| O=C(CCC1CCN(Cc2ccccc2F)CC1)c1cc2c3c(ccn3C(=O)CC2)c1 | 0.00251 µM |
| CS(=O)(=O)Nc1ccc2c(CCC3CCN(Cc4ccccc4)CC3)noc2c1 | 0.0141 µM |
| O=C(CCC1CCN(Cc2cccc(F)c2)CC1)c1cc2c3c(ccn3C(=O)CC2)c1 | 0.00129 µM |
| COc1ccccc1CN1CCC(CCC(=O)c2cc3c4c(ccn4C(=O)CC3)c2)CC1 | 0.0646 µM |
| O=C(CCC1CCN(Cc2ccccc2)CC1)c1ccc2c(c1)CCCN2 | 0.0646 µM |
| O=C(CCC1CCN(Cc2ccccc2)CC1)c1ccc2c(c1)NCCC2 | 0.166 µM |
| O=C(CCC1CCN(Cc2ccc(O)cc2)CC1)c1cc2c3c(ccn3C(=O)CC2)c1 | 0.00049 µM |
| O=C(CCC1CCN(Cc2ccccc2)CC1)c1ccc2c(c1)CCN2 | 0.0525 µM |
| O=C(CCC1CCN(Cc2ccc(F)cc2)CC1)c1cc2c3c(ccn3C(=O)CC2)c1 | 0.00457 µM |
| O=C(CCC1CCN(Cc2ccccc2)CC1)c1cc2c3c(c1)CCC(=O)N3CCC2 | 0.0158 µM |
| c1ccc(CN2CCC(CCc3noc4cc(C5CCCCC5)ccc34)CC2)cc1 | 0.000794 µM |
| O=C(CCC1CCN(Cc2ccc(Cl)cc2)CC1)c1cc2c3c(ccn3C(=O)CC2)c1 | 0.151 µM |
| O=C(CCC1CCN(Cc2ccccc2)CC1)c1cc2c3c(c1)CCN3C(=O)CC2 | 0.00977 µM |
| O=C(CCC1CCN(Cc2ccccc2)CC1)c1ccc2c(c1)CNCCO2 | 0.0398 µM |
| COc1ccc(CN2CCC(CCC(=O)c3cc4c5c(ccn5C(=O)CC4)c3)CC2)cc1 | 0.347 µM |
| O=C(CCC1CCN(Cc2ccccc2O)CC1)c1cc2c3c(ccn3C(=O)CC2)c1 | 0.0011 µM |
| O=C(CCC1CCN(Cc2ccccc2)CC1)c1ccc2c(c1)NC(c1ccccc1)N2 (stereo not drawn) | 0.0331 µM |
| O=C(CCC1CCN(Cc2ccccc2)CC1)c1ccc2c(c1)CNCCC2 | 0.0229 µM |
| O=C(CCC1CCN(Cc2ccc([N+](=O)[O-])cc2)CC1)c1cc2c3c(ccn3C(=O)CC2)c1 | 0.0427 µM |
| O=C(CCC1CCN(Cc2cccc([N+](=O)[O-])c2)CC1)c1cc2c3c(ccn3C(=O)CC2)c1 | 0.00288 µM |
| O=C(CCC1CCN(Cc2ccccc2)CC1)c1cc2c3c(c1)CC(=O)N3CCC2 | 0.00363 µM |
| O=C(CCC1CCN(Cc2ccccc2[N+](=O)[O-])CC1)c1cc2c3c(ccn3C(=O)CC2)c1 | 0.0891 µM |
| COc1cccc(CN2CCC(CCC(=O)c3cc4c5c(ccn5C(=O)CC4)c3)CC2)c1 | 0.126 µM |
| O=C(CCC1CCN(Cc2cccc(O)c2)CC1)c1cc2c3c(ccn3C(=O)CC2)c1 | 0.00871 µM |
| O=C(CCC1CCN(Cc2cccc(Cl)c2)CC1)c1cc2c3c(ccn3C(=O)CC2)c1 | 0.0049 µM |
